Source: PMC5814754, “Quantitative, Wide-Spectrum Kinase Profiling in Live Cells for Assessing the Effect of Cellular ATP on Target Engagement” (Cell Chemical Biology, 2018)
Read-outs that look alike come from different tables or passages of the source.

Legend:
[1] = biological target: LCK (Homo sapiens, UniProt P06239); experiment: NanoBRET target engagement, LCK-NanoLuc, HEK293 cells (live, ATP depleted, permeabilized); type: binding; conditions: LCK-NanoLuc, read-out: Tracer Affinity EC50
[2] = biological target: 178 full-length kinases (Homo sapiens, UniProt Q13237); experiment: NanoBRET single-dose fractional occupancy profiling of kinase/Nluc library in live HEK293 cells (Table S1); type: binding; parameters: Occupancy, % Replicate 1 / Occupancy, % Replicate 2: unit of the concentration uncertain; conditions: PRKG2, Nluc C, probe 5 at 1 (unit uncertain)
[3] = test system: TIE2; conditions: read-out: Crizotinib IC50 Biochemical; ref Cui et al., 2011; cited from earlier work
[4] = test system: MET; conditions: read-out: Crizotinib IC50 Biochemical; ref Cui et al., 2011; cited from earlier work
[5] = test system: ABL; conditions: read-out: Live Cell IC50 Phospho Elisa; ref Cui et al., 2011; cited from earlier work
[6] = test system: TRKA; conditions: read-out: Live Cell IC50 Phospho Elisa; ref Cui et al., 2011; cited from earlier work

LCK, sequence (P06239 whole entry): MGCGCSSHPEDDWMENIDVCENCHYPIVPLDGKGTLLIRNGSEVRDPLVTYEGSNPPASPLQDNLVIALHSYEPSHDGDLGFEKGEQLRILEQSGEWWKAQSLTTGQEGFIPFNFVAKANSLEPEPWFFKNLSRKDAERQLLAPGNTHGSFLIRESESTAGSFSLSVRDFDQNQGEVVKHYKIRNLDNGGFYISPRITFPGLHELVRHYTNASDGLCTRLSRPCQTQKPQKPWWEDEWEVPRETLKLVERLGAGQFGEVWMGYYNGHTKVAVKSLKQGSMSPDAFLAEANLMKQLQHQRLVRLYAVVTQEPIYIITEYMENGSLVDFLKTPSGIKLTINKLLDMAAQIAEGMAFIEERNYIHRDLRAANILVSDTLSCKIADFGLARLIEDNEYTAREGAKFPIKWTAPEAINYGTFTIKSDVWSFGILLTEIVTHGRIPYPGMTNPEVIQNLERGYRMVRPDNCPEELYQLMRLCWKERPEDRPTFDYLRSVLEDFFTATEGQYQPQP
178 full-length kinases, sequence (Q13237 whole entry): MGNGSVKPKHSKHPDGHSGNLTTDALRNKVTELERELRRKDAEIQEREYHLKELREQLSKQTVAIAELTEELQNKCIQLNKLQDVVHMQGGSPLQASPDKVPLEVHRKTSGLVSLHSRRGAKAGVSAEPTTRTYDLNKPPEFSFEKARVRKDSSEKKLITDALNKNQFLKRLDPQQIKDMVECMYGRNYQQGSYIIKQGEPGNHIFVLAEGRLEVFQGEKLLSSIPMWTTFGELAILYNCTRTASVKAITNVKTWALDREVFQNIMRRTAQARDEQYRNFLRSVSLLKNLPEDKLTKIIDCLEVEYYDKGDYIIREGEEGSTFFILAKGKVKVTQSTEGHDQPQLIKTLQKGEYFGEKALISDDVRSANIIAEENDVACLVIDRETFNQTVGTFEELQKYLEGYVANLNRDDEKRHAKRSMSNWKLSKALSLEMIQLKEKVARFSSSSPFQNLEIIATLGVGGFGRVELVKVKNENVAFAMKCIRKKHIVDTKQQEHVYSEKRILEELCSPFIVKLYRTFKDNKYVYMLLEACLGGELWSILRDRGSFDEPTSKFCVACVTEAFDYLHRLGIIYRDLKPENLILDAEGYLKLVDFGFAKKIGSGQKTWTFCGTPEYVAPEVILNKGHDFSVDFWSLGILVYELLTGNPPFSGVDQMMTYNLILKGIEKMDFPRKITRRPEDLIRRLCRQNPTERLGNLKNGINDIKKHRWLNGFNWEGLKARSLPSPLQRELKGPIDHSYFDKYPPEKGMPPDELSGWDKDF

SMILES | EC50 ([1]; ATP Depleted) [nM] | EC50 ([1]; Live) [nM] | EC50 ([1]; Permeabilized) [nM] | Occupancy, % Replicate 2 [2] | IC50 [3] [nM] | IC50 [4] [nM] | IC50 [5] [nM] | IC50 [6] [nM]
CNC(=O)c1ccccc1Nc1nc(Nc2ccc(N3CCN(C(=O)CCOCCOCCOCCOCCNC(=O)CCc4ccc5n4[B-](F)(F)[N+]4=C(c6ccc[nH]6)C=CC4=C5)CC3)cc2)ncc1Cl [Energy Transfer Probe 5, 2-((2-((4-(4-(1-amino-3,6,9,12-tetraoxapentadecan-15-oyl)piperazin-1-yl)phenyl)amino)-5-chloropyrimidin-4-yl)amino)-N-methylbenzamide-NanoBRET 590] | 370 ± 70 | > 1000 | 52 ± 3 |  |  |  |  | 
C[C@@H](Oc1cc(-c2cnn(C3CCNCC3)c2)cnc1N)c1c(Cl)ccc(F)c1Cl [Crizotinib] |  |  |  | No Binding | […] | […] | […] | 580
